Like-named read-outs stand apart in the source and are kept apart here. Values belong to the compound of their own block, whether it stands above or below them.
Assays:
HDAC7 = target: T1, HDAC7 (Homo sapiens, UniProt Q8WUI4); experiment: HDAC biochemical activity measurement (fluorescent substrate deacetylation); conditions: HDAC7 enzyme, 37°, 30 minutes
T1 sequence (Q8WUI4 1-952): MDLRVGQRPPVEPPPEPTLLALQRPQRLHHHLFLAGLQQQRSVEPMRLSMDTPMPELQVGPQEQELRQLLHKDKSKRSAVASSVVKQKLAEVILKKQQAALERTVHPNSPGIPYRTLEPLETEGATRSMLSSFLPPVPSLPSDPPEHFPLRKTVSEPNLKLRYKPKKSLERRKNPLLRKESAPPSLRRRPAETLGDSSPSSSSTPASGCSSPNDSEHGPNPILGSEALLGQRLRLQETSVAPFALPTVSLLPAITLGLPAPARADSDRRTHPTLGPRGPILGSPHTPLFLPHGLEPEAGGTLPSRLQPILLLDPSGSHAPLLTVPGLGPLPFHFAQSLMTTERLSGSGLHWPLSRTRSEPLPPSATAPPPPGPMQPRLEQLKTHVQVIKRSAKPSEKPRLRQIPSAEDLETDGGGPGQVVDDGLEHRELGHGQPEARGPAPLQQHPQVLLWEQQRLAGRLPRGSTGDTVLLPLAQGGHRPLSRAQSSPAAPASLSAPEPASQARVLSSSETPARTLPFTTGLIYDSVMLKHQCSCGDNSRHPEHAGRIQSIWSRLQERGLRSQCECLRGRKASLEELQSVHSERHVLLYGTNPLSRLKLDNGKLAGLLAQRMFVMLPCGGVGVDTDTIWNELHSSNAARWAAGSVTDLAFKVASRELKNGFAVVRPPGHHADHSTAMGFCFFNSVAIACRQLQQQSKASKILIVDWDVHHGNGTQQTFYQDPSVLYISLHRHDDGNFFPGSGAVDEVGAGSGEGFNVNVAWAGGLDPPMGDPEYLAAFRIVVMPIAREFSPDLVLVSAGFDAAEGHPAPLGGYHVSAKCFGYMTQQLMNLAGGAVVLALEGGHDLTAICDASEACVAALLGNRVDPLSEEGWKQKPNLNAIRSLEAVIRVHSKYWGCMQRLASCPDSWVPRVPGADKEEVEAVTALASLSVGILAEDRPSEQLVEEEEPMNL
Protocol: Measurement principle: The chemical activity of the compound is determined according to the degree of deacetylation inhibition of the HDAC enzyme. […] After the substrate containing an acetylated lysine side chain and HDAC enzyme are labeled with a fluorescent label, the fluorescent substrate is de acetyl. The fluorescent labeled substrate is cleaved by the enzyme, and the fluorescent substance is released, which generates 460 nm emission light under the excitation of 360 nm light.
(§9) Specific steps: HDAC substrate was diluted with reaction buffer to 200M (reaction concentration of 20M), the HDAC enzyme was diluted to the appropriate concentration, then added different concentrations of the test compounds and acted at 37 ? 30 minutes, and then added the same volume of 2-times concentration substrate developing solution (developer), incubated at room temperature for 15 minutes. Finally, the last reading measured with a microplate plate reader, excitation light was 360 nm, the emitted light was 460 nm, data processing software was Prime 4, and the results are shown in Table 1.

[1] = test system: U937 (human leukemia cells); experiment: MTT cancer cell growth inhibition; assay type: cell-based; conditions: 72 hours incubation
Source text: (§1) MTT assay principle is yellow MTT can penetrate membrane into the cell, succinic dehydrogenase of the mitochondria in living cells can make exogenous MTT reduction of insoluble in water of blue-violet acicular formazan for crystallization and deposition in the cell, crystallization can be dissolved dimethyl sulfoxide (DMSO) solution, detected its absorbance at 490 nm/570 nm wavelength by enzyme-linked immunosorbent assay, which can reflect the number of cells.
(§2) Using DMEM+10% FBS culture medium or using 1640+10% FBS culture, respectively.
(§3) Experimental group: 190 μl cell suspension+10 μl different concentrations of drugs (the final concentration is 10^−5˜10^−10 M)
(§4) a) Cells were seeded in 96-well plates with the inoculation of 1500/well, 190 μl/hole, 37° C., 5% of CO2 incubator overnight;
(§5) b) The next day each well was added 10 μl of different drugs. The final concentration of drug was 10^−5˜10^−10 M, three parallel holes; 37° C., 5% CO2 culture incubator for 72 hours incubation;
(§6) c) Per well was added 20 μl 5 mg/ml of MTT, 37° C., 5% CO2 culture incubator for 4 hours incubation;
(§7) d) The supernatant was discarded. Each well was added 100 μl of DMSO and oscillation;
(§8) e) 570 nm readings. Calculate cell viability. GI50 calculation based on the results.

[2] = test system: MCF-7 (human breast cancer cells); experiment: MTT cancer cell growth inhibition; assay type: cell-based; conditions: 72 hours incubation, MCF-7 cells
Source text: as §1, §2, §3, §4, §5, §6, §7, §8

[3] = test system: BGC-823 (human gastric cancer cells); experiment: MTT cancer cell growth inhibition; assay type: cell-based; conditions: 72 hours incubation
Source text: as §1, §2, §3, §4, §5, §6, §7, §8

[4] = test system: lncap (prostate cancer cells); experiment: MTT cancer cell growth inhibition; assay type: cell-based; conditions: 72 hours incubation
Source text: as §1, §2, §3, §4, §5, §6, §7, §8

[5] = test system: HT1080 (human fibrosarcoma cells); experiment: MTT cancer cell growth inhibition; assay type: cell-based; conditions: 72 hours incubation
Source text: as §1, §2, §3, §4, §5, §6, §7, §8

[6] = test system: Hela (human cervical cancer cells); experiment: MTT cancer cell growth inhibition; assay type: cell-based; conditions: 72 hours incubation
Source text: as §1, §2, §3, §4, §5, §6, §7, §8

[7] = test system: MOLT-4 (human acute lymphoblastic leukemia cells); experiment: MTT cancer cell growth inhibition; assay type: cell-based; conditions: 72 hours incubation
Source text: as §1, §2, §3, §4, §5, §6, §7, §8

[8] = test system: DU145 (human prostate cancer cells); experiment: MTT cancer cell growth inhibition; assay type: cell-based; conditions: 72 hours incubation
Source text: as §1, §2, §3, §4, §5, §6, §7, §8

[9] = test system: PANC-1 (Pac-1, human pancreatic cancer cells); experiment: MTT cancer cell growth inhibition; assay type: cell-based; conditions: 72 hours incubation
Source text: as §1, §2, §3, §4, §5, §6, §7, §8

HDAC11 = target: T2, HDAC11 (Homo sapiens, UniProt Q96DB2); experiment: HDAC biochemical activity measurement (fluorescent substrate deacetylation); conditions: IC50 (μM) HDAC11, HDAC11 enzyme, 37°, 30 minutes
T2 sequence (Q96DB2 1-347): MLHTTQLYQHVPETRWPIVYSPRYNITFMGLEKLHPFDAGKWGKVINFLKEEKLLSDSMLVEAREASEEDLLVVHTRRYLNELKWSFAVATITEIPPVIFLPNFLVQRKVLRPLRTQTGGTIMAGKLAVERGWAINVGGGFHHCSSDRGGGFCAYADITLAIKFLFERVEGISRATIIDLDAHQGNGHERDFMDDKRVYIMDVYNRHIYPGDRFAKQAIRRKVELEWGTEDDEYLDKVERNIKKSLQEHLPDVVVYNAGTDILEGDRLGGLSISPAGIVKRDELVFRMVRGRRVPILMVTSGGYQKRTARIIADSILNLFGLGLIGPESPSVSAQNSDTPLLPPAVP
Protocol: (§10) Measurement principle: The chemical activity of the compound is determined according to the degree of deacetylation inhibition of the HDAC enzyme. This experiment measured the degree of deacetylation related to tumor proliferation and metastasis of HDAC1, HDAC2, HDAC3, HDAC8, HDAC11 five subtypes HDAC enzymes. After the substrate containing an acetylated lysine side chain and HDAC enzyme are labeled with a fluorescent label, the fluorescent substrate is de acetyl. The fluorescent labeled substrate is cleaved by the enzyme, and the fluorescent substance is released, which generates 460 nm emission light under the excitation of 360 nm light.
as §9

HDAC2 = HDAC2 (Homo sapiens, UniProt Q92769); experiment: as above; conditions: HDAC2 enzyme, 37°, 30 minutes
Protocol: as §10, §9

HDAC1 = HDAC1 (Homo sapiens, UniProt Q13547); experiment: as above; conditions: HDAC1 enzyme, 37°, 30 minutes
Protocol: as §10, §9

HDAC3 = HDAC3 (Homo sapiens, UniProt O15379); experiment: as above; conditions: IC50 (μM) HDAC3, HDAC3 enzyme, 37°, 30 minutes
Protocol: as §10, §9

HDAC8 = target: T3, HDAC8 (Homo sapiens, UniProt Q9BY41); experiment: as above; conditions: HDAC8 enzyme, 37°, 30 minutes
T3 sequence (Q9BY41 1-377): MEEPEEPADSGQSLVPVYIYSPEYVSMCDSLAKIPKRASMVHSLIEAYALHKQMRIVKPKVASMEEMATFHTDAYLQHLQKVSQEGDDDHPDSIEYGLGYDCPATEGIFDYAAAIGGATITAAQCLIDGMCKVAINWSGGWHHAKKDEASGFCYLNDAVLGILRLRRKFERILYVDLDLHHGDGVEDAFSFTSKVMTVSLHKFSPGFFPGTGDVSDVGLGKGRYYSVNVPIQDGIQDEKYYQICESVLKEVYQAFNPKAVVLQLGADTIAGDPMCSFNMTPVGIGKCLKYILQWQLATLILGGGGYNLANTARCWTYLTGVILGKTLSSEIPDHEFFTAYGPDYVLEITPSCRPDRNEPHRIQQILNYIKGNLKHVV
Protocol: as §10, §9

[10] = test system: A549 (human lung cancer cells); experiment: MTT cancer cell growth inhibition; assay type: cell-based; conditions: 72 hours incubation
Source text: as §1, §2, §3, §4, §5, §6, §7, §8

[11] = test system: N-87 (human gastric cancer cells); experiment: MTT cancer cell growth inhibition; assay type: cell-based; conditions: 72 h, N-87 cells, 72 hours incubation
Source text: as §1, §2, §3, §4, §5, §6, §7, §8

[12] = BGC-823 cells, read-out: GI50 BGC8
[13] = lncap cells, read-out: GI50 lncap
[14] = HT1080 cells, read-out: GI50 HT10
[15] = MOLT-4 cells, read-out: GI50 Molt-
[16] = DU145 cells, read-out: GI50 Du14
[17] = PANC-1 cells, read-out: GI50 PAN

Sequence of HDAC2 (Q92769 whole entry, species assumed): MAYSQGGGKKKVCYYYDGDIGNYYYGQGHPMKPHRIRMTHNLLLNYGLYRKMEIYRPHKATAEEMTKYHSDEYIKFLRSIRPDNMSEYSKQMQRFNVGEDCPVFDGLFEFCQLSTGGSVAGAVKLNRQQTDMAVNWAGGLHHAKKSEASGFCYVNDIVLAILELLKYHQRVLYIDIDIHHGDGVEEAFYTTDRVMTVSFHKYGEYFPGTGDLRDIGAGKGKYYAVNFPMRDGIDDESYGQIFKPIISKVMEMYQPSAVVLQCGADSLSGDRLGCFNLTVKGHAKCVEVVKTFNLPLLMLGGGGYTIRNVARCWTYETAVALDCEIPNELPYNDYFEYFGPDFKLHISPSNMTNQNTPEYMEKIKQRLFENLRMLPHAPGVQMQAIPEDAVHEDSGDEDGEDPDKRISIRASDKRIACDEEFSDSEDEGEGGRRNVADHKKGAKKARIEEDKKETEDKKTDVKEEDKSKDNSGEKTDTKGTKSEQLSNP
Sequence of HDAC1 (Q13547 whole entry, species assumed): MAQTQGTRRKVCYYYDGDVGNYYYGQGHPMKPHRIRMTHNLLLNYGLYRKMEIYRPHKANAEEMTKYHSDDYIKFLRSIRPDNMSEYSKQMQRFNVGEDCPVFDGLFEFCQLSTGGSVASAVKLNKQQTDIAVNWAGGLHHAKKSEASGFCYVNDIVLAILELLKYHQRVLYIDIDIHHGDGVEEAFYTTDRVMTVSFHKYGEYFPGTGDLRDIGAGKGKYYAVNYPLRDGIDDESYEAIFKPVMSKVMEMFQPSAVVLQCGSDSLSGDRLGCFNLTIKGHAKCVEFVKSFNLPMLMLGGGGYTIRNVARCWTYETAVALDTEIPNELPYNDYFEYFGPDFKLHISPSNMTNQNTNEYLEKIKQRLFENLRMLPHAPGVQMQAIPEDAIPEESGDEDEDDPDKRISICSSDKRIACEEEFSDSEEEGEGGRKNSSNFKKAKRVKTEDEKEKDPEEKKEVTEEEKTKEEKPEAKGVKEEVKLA
Sequence of HDAC3 (O15379 whole entry, species assumed): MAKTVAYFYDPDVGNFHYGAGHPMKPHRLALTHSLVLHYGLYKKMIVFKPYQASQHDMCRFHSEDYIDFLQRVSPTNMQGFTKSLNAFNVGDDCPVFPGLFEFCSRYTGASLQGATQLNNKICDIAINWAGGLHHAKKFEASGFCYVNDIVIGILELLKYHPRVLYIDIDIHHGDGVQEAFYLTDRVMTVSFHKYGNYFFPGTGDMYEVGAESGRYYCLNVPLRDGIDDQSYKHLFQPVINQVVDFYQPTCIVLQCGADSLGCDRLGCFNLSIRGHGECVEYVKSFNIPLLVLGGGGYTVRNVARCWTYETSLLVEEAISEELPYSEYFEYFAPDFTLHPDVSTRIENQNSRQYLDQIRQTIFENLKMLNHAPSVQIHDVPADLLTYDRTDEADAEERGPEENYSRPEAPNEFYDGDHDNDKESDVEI
Sequence of HDAC3 (Q9Y618 395-489 partner limits assumed, species assumed): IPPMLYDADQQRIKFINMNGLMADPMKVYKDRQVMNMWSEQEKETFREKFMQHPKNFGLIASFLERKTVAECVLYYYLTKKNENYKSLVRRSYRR

IC50 (μM) HDAC7 (HDAC7): no activity | GI50 [1]: 86 nM | GI50 [2]: 55 nM | GI50 [3, 12]: 0.066 µM | GI50 [4, 13]: 0.016 µM | GI50 [5, 14]: 0.058 µM | GI50 ([6]; Hela cells, read-out: GI50 Hela): 0.076 µM | GI50 [7, 15]: 0.046 µM | GI50 [8, 16]: 0.029 µM | GI50 [9, 17]: 0.021 µM
Structure (SMILES): C/C=C1\NC(=O)c2nc(cc(SC)n2)CNC(=O)C[C@@H](/C=C/CCSC(C)=O)OC(=O)[C@H](C(C)C)NC1=O [Compound 216]

IC50 (HDAC11): 0.092 µM | IC50 (HDAC2): 0.028 µM | IC50 (HDAC1): 0.081 µM | IC50 (HDAC3): 0.053 µM | IC50 (HDAC8): 0.043 µM | GI50 ([1]; Homo sapiens, U-937, 72 h): 42 nM | GI50 ([2]; Homo sapiens, MCF7, 72 h): 21 nM | GI50 ([3]; Homo sapiens, BGC-823, 72 h, BGC-823 cells, read-out: GI50 BGC8): 0.032 µM | GI50 ([4]; Homo sapiens, LNCaP, 72 h, lncap cells, read-out: GI50 lncap): 0.043 µM | GI50 ([5]; Homo sapiens, HT-1080, 72 h, HT1080 cells, read-out: GI50 HT10): 0.076 µM | GI50 ([6]; Homo sapiens, HeLa, 72 h, Hela cells, read-out: GI50 Hela): 0.068 µM | GI50 ([10]; Homo sapiens, A549, 72 h, A549 cells, read-out: GI50 A549): 0.037 µM | GI50 ([8]; Homo sapiens, DU-145, 72 h, DU145 cells, read-out: GI50 Du14): 0.063 µM | GI50 ([9]; Homo sapiens, PANC-1, 72 h, PANC-1 cells, read-out: GI50 PAN): 0.023 µM
Structure (SMILES): C/C=C1\NC(=O)c2ccc(SC)c(n2)CNC(=O)C[C@@H](/C=C/CCSC(=O)CCCC)OC(=O)[C@H](C(C)C)NC1=O [Compound 158]

GI50 [11]: 23 nM
Structure (SMILES): C/C=C1\NC(=O)c2ccc(F)c(n2)CNC(=O)C[C@@H](/C=C/CCSC(C)=O)OC(=O)[C@H](C(C)C)NC1=O [Compound 95]

IC50 (μM) HDAC7 (HDAC7): no activity | GI50 [1]: 91 nM | GI50 [2]: 63 nM | GI50 [3, 12]: 0.035 µM | GI50 [4, 13]: 0.034 µM | GI50 [5, 14]: 0.021 µM | GI50 [7, 15]: 0.099 µM | GI50 ([10]; A549 cells, read-out: GI50 A549): 0.072 µM | GI50 [8, 16]: 0.027 µM | GI50 [9, 17]: 0.073 µM
Structure (SMILES): C/C=C1\NC(=O)c2ncc(SC)c(n2)CNC(=O)C[C@@H](/C=C/CCSC(C)=O)OC(=O)[C@H](C(C)C)NC1=O [Compound 217]

IC50 (μM) HDAC7 (HDAC7): no activity | GI50 ([3]; drug concentration required for 50% of cell growth inhibition, read-out: GI50 (μM) BGC8): 0.052 µM | GI50 ([4]; drug concentration required for 50% of cell growth inhibition, read-out: GI50 (μM) lncap): 0.025 µM | GI50 ([5]; drug concentration required for 50% of cell growth inhibition, read-out: GI50 (μM) HT10): 0.083 µM | GI50 ([6]; drug concentration required for 50% of cell growth inhibition, read-out: GI50 (μM) Hela): 0.052 µM | GI50 ([7]; drug concentration required for 50% of cell growth inhibition, read-out: GI50 (μM) Molt-): 0.025 µM | GI50 ([10]; drug concentration required for 50% of cell growth inhibition, read-out: GI50 (μM) A549): 0.601 µM | GI50 ([8]; drug concentration required for 50% of cell growth inhibition, read-out: GI50 (μM) Du14): 0.042 µM | GI50 ([9]; drug concentration required for 50% of cell growth inhibition, read-out: GI50 (μM) PAN): 0.083 µM
Structure (SMILES): C/C=C1\NC(=O)c2nc(F)cc(n2)CNC(=O)C[C@@H](/C=C/CCSC(C)=O)OC(=O)[C@H](C(C)C)NC1=O [Compound 98]

Source: patent US20160280736A1, “CYCLIC PEPTIDE COMPOUND, AND PREPARATION METHOD, PHARMACEUTICAL COMPOSITION AND USE THEREOF” (HANGZHOU GUANYU BIO-MEDICAL CO., LTD., priority 2013, published 2016)
